Values after ≈ are worked out from the molar mass of the structure shown. Structures can show the parent of a compound that is named as a salt. Where two headings read alike, the source gives them in different places.
What was measured:
Assay in all cases: MIC by agar dilution (Mueller Hinton Agar)
Assay type in all cases: cell-based
[1] = system: Proteus vulgaris; conditions: Culture Number 9679, MHA, 35° C., 20 hours, read-out: Minimum Inhibitory Concentration
Procedure: (§1) The compounds of this invention and their respective pharmacologically acceptable salts have antibiotic activity against a variety of gram-negative bacteria including Escherichia coli, Klebsiella pneumoniae, and Pseudomonas aeruginosa. The compounds are useful for treating bacterial infections in animals, including and most preferably humans. Compounds of the invention are tested for in vitro antimicrobial activity using standard testing procedures such as the determination of minimum inhibitory concentration (MIC) by agar dilution as described in "Methods for Dilution Antimicrobial Susceptibility Tests for Bacteria That Grow Aerobically" (M7-A) Published December 1985 by the National Committee for Clinical Laboratory Standards, 771 East Lancaster Avenue, Villanova, Pa. 19084. Briefly, MIC values are determined in unsupplemented Mueller Hinton Agar (MHA). The compounds tested are diluted serially into molten MHA at 47° C. The agar is poured into petri dishes and allowed to harden. The various bacteria used for testing are grown overnight on MHA at 35° C. and transferred to Tryptiease Soy Broth (TSB) until a turbidity of 0.5 McFarland standard is obtained. The bacteria are diluted one to 20 in TSB and inoculated on the plates (1 μl using a Steers replicator). […] The MIC test results of two typical compounds of this invention, Compound 14 which is (3S)-3-[2-(2-Amino-4-thiazolyl)-Z-(2)-carboxyisopropyloxyimino)acetamido]- 1-[(3-carboxy-4-pyridon-6-yl)-carbonylamino-1-(2-imidazolidone-3-yl)sulfonylaminocarbonyl]-2-azetidinone trisodium salt and Compound 17 which is (3S)-3-[2-(2-Amino-4-thiazolyl)-Z-(2)-(carboxyisopropyloxyamino)acetamido]-1-[(3-hydroxyaminocarbonyl-4-pyridon-6-yl)carbonylamino-1-(2-imidazolidone-3-yl)sulfonylaminocarbonyl]-2-azetidinone, are given in Table I.

[2] = system: Streptococcus pneumoniae; conditions: Culture Number 41, MHA, 35° C., 20 hours, read-out: Minimum Inhibitory Concentration
Procedure: as §1

[3] = system: Enterobacter cloacae; conditions: 20 h, 35° C., read-out: Minimum Inhibitory Concentration
Procedure: as §1

[4] = system: Streptococcus pyogenes; conditions: Culture Number 152, MHA, 35° C., 20 hours, read-out: Minimum Inhibitory Concentration
Procedure: as §1

[5] = system: Escherichia coli; conditions: 20 h, 35° C., read-out: Minimum Inhibitory Concentration
Procedure: as §1

[6] = system: Klebsiella pneumoniae; conditions: Culture Number 58, MHA, 35° C., 20 hours, read-out: Minimum Inhibitory Concentration
Procedure: as §1

[7] = system: Pseudomonas aeruginosa
Procedure: as §1

[8] = system: Staphylococcus aureus; conditions: MHA, 35° C., 20 hours; for MIC: Staphylococcus aureus, Culture Number 9218, read-out: Minimum Inhibitory Concentration
Procedure: as §1

[9] = system: Citrobacter freundli; conditions: Culture Number 3507, MHA, 35° C., 20 hours, read-out: Minimum Inhibitory Concentration
Procedure: as §1

[10] = system: Klebsiella oxytoca; conditions: 20 h, 35° C., read-out: Minimum Inhibitory Concentration
Procedure: as §1

[11] = system: Serratia marcescens; conditions: Culture Number 6888, MHA, 35° C., 20 hours, read-out: Minimum Inhibitory Concentration
Procedure: as §1

[12] = system: Streptococcus faecalis; conditions: Enterococcus faecalis; Culture Number 694; MHA, 35° C., 20 hours; read-out: Minimum Inhibitory Concentration
Procedure: as §1

[13] = 20 h, Culture Number 231, MHA, 35° C., 20 hours, read-out: Minimum Inhibitory Concentration
[14] = 20 h, Culture Number 9191, MHA, 35° C., 20 hours, read-out: Minimum Inhibitory Concentration

| SMILES | MIC [1] | MIC [2] | MIC ([3]; Culture Number 9381, MHA) | MIC ([3]; Culture Number 9382, MHA) | MIC [4] | MIC ([5]; Culture Number 9379, MHA) | MIC ([5]; Culture Number 9380, MHA) | MIC ([5]; Culture Number 9451, MHA) | MIC [6] | MIC [7, 13] | MIC [7, 14] | Minimum Inhibitory Concentration ([8]; Culture Number 3665) | Minimum Inhibitory Concentration ([8]; Culture Number 6685) | MIC [8] | MIC [9] | MIC ([10]; Culture Number 9383, MHA) | MIC ([10]; Culture Number 9384, MHA) | MIC [11] | MIC [12] | MIC ([7]; pseudomonas aeruginosa Culture No. 231, given in text for Compound 18, read-out: M/C) |
| --- | --- | --- | --- | --- | --- | --- | --- | --- | --- | --- | --- | --- | --- | --- | --- | --- | --- | --- | --- | --- |
| CC(C)(O/N=C(\C(=O)N[C@H]1CN(C(=O)NS(=O)(=O)N2CCN(NC(=O)c3cc(=O)c(C(=O)NO)c[nH]3)C2=O)C1=O)c1csc(N)n1)C(=O)O [Compound 17, (3S)-3-[2-(2-Amino-4-thiazolyl)-Z-(2)-(carboxyisopropyloxyamino)acetamido]-1-[(3-hydroxyaminocarbonyl-4-pyridon-6-yl)carbonylamino-1-(2-imidazolidone-3-yl)sulfonylaminocarbonyl]-2-azetidinone] | 0.125 µg/mL (≈ 0.172 µM) | 64 µg/mL (≈ 88 µM) | 64 µg/mL (≈ 88 µM) | 2 µg/mL (≈ 2.75 µM) | 4 µg/mL (≈ 5.5 µM) | 0.5 µg/mL (≈ 0.687 µM) | 0.5 µg/mL (≈ 0.687 µM) | 0.25 µg/mL (≈ 0.344 µM) | 0.5 µg/mL (≈ 0.687 µM) | 4 µg/mL (≈ 5.5 µM) | 4 µg/mL (≈ 5.5 µM) | > 128 µg/mL | > 128 µg/mL | > 128 µg/mL | 0.25 µg/mL (≈ 0.344 µM) | 4 µg/mL (≈ 5.5 µM) | 0.5 µg/mL (≈ 0.687 µM) | 2 µg/mL (≈ 2.75 µM) | > 128 µg/mL | – |
| CC(C)(O/N=C(\C(=O)N[C@H]1CN(C(=O)NS(=O)(=O)N2CCN(NC(=O)c3cc(=O)c(C(=O)O)c[nH]3)C2=O)C1=O)c1csc(N)n1)C(=O)O [Compound 14, (3S)-3-[2-(2-Amino-4-thiazolyl)-Z-(2)-carboxyisopropyloxyimino)acetamido]-1-[(3-carboxy-4-pyridon-6-yl)-carbonylamino-1-(2-imidazolidone-3-yl)sulfonylaminocarbonyl]-2-azetidinone trisodium salt] | 0.06 µg/mL | 64 µg/mL | 64 µg/mL | 0.5 µg/mL | 4 µg/mL | 0.25 µg/mL | 0.125 µg/mL | 0.125 µg/mL | 0.5 µg/mL | 0.5 µg/mL | 1 µg/mL | > 128 µg/mL | > 128 µg/mL | > 128 µg/mL | 0.25 µg/mL | 4 µg/mL | 0.25 µg/mL | 0.5 µg/mL | > 128 µg/mL | – |
| CC(C)(O/N=C(\C(=O)N[C@H]1CN(C(=O)NS(=O)(=O)N2CCN(NC(=O)c3cc(=O)c(C(N)=O)c[nH]3)C2=O)C1=O)c1csc(N)n1)C(=O)O [Compound 18] | – | – | – | – | – | – | – | – | – | – | – | – | – | – | – | – | – | – | – | 8 µg/mL (≈ 11.2 µM) |

Source: patent US5001235A, “Antibiotic beta-lactams containing a pyridone carboxylic acid or acid derivative” (The Upjohn Company, priority 1989, dated 1991)
